# Literature values, collected in patent publication US9901098B2, “Methods for plant protection” (TDA Research, Inc, priority 2015, dated 2018).
compound,measurement,setting,value
"[O][Cl+][O-] [ClO2, chlorine dioxide]",concentration that effectively kills microbes,microbes; aqueous solutions,≤ 1 ppm
same,time required to kill microbes,microbes; solutions containing 1 ppm ClO2 or less,as short as one minute
same,permissible exposure level (PEL) in air,human workers,0.1 ppm
